The record followed here is PubChem BioAssay (NCI).

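Interpolation was linear, between the two tested concentrations surrounding the appropriate level; five concentrations were tested over 48 hours in 96-well plates. Definition used: TGI = concentration required for complete inhibition of growth.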

Among the test systems are RPMI-8226 leukemia; OVCAR-4 ovarian; SNB-75 CNS; SF-295 CNS; 786-0 renal; SF-539 CNS; NCI-H522 lung; A498 renal; T-47D breast; MDA-MB-435.
Holding throughout (experiment): DTP human tumour cell line panel, 48 h

Broadly, the TGI is the concentration giving total growth inhibition. Regarding `CN(C)CCCSc1c2ccccc2nc2cc(NCC(=O)Nc3ccccc3-c3ccccc3NC(=O)CNc3ccc4c(SCCCN(C)C)c5ccccc5nc4c3)ccc12`, the TGI in the assay with RPMI-8226 leukemia, in the assay on OVCAR-4 ovarian, with SNB-75 CNS, in the assay with SF-295 CNS, in the assay on 786-0 renal and in the assay on SF-539 CNS was > 100 µM in each case. The concentration for total growth inhibition (TGI) with NCI-H522 lung and in the assay on A498 renal was > 100 µM throughout.

For the molecule `CN1CC2=C(NC(=S)NC2c2ccc(Cl)cc2)/C(=C/c2ccc(Cl)cc2)C1` (configuration not stated), the TGI in the assay on RPMI-8226 leukemia is 92.4 µM; in the assay on T-47D breast it was 32.3 µM; in the assay with SNB-75 CNS, 31.2 µM; with MDA-MB-435, 30.1 µM; in the assay on SF-295 CNS, 33.8 µM; in the assay with 786-0 renal it was 52.3 µM. Further, the concentration for total growth inhibition (TGI) with SF-539 CNS came out at 62.9 µM; in the assay on NCI-H522 lung it was 31 µM.

Turning to `CCOC(=O)c1nc2ccc(Cl)cc2c2c1CCO2`, the concentration for total growth inhibition (TGI) with OVCAR-4 ovarian is > 100 µM; in the assay with SNB-75 CNS it was 88.6 µM; in the assay on SF-295 CNS, > 100 µM; in the assay with 786-0 renal, > 100 µM; with SF-539 CNS it was > 100 µM; in the assay with NCI-H522 lung it was > 100 µM. For the same molecule, in the assay with A498 renal, the TGI is > 100 µM.

`COc1ccc(C2CCC(Cl)(OC)CC2C=O)cc1` (configuration not stated): the concentration for total growth inhibition (TGI) in the assay on RPMI-8226 leukemia, in the assay on OVCAR-4 ovarian, with SNB-75 CNS, in the assay on SF-295 CNS, in the assay on 786-0 renal and in the assay with SF-539 CNS was > 100 µM throughout. Also, the total growth inhibition concentration (TGI) in the assay with NCI-H522 lung and in the assay on A498 renal was > 100 µM in each case.

For the molecule `CO/C(=N\N=C\c1ccc(OC)cc1OC)c1ccncc1`, the concentration for total growth inhibition (TGI) in the assay with RPMI-8226 leukemia, in the assay on T-47D breast, in the assay with SNB-75 CNS, in the assay with SF-295 CNS, in the assay on 786-0 renal and with SF-539 CNS was > 10 µM each time. The total growth inhibition concentration (TGI) in the assay with A498 renal is > 10 µM.

In the case of `NC12CC3CC(C1)CC(Cl)(C3)C2`, the TGI in the assay on RPMI-8226 leukemia, in the assay with SNB-75 CNS, in the assay with 786-0 renal, with SF-539 CNS, in the assay with NCI-H522 lung and with A498 renal was > 100 µM throughout.

Consider `Cc1nccc2c1cnc1ccnn12`, for which the TGI in the assay with RPMI-8226 leukemia, in the assay with OVCAR-4 ovarian, in the assay on SNB-75 CNS, in the assay on 786-0 renal, in the assay with SF-539 CNS and in the assay on NCI-H522 lung was > 100 µM in each case. For the same molecule, the total growth inhibition concentration (TGI) in the assay on A498 renal was > 100 µM.

On to `CCOC(OCC)c1ccc(/C=C/c2cc(OC)c(OC)c(OC)c2)cc1`, for which the concentration for total growth inhibition (TGI) amounted to 63 µM in the assay on RPMI-8226 leukemia; 68.1 µM in the assay on OVCAR-4 ovarian; 57.5 µM in the assay on SNB-75 CNS; 40.4 µM with SF-295 CNS; 60.1 µM with 786-0 renal; 29.8 µM in the assay on SF-539 CNS. Besides, the TGI with NCI-H522 lung is > 100 µM; with A498 renal, 45.4 µM.

Regarding `COc1ccc(-c2onc(-c3c(C)cc(C)cc3C)c2C2=NCCCN2)cc1`, the TGI in the assay on RPMI-8226 leukemia is 86.5 µM; in the assay with OVCAR-4 ovarian, > 100 µM; with SF-295 CNS, 56.6 µM; in the assay on 786-0 renal, > 100 µM; in the assay with SF-539 CNS, 53.7 µM; in the assay with NCI-H522 lung, 35.5 µM.

Take `COc1cccc(-c2cccc(SC)n2)n1`: the total growth inhibition concentration (TGI) was 78.1 µM with RPMI-8226 leukemia; > 100 µM with OVCAR-4 ovarian; 75.1 µM in the assay on T-47D breast; > 100 µM in the assay with SNB-75 CNS; 86.8 µM with MDA-MB-435; > 100 µM with SF-295 CNS. Further, the total growth inhibition concentration (TGI) is 88.3 µM in the assay with 786-0 renal and > 100 µM in the assay on SF-539 CNS.

For the molecule `C/C(=N\NS(=O)(=O)c1ccc(C)cc1)C(CN(C)C)C(c1ccccc1)c1c(O)c2ccccc2oc1=O` (configuration not stated), the TGI was > 100 µM with RPMI-8226 leukemia; > 100 µM with OVCAR-4 ovarian; > 84.7 µM in the assay on SNB-75 CNS; > 100 µM in the assay on MDA-MB-435; > 100 µM in the assay on SF-295 CNS; > 100 µM in the assay with 786-0 renal. In addition, the total growth inhibition concentration (TGI) in the assay with SF-539 CNS, in the assay on NCI-H522 lung and in the assay with A498 renal was > 100 µM in each case.

As to `CC(=O)OC1OC2C(NC(=O)OC(C)(C)C)C1CC2(OCc1ccccc1)OCc1ccccc1` (configuration not stated), the TGI was 43.3 µM with RPMI-8226 leukemia; > 100 µM with SNB-75 CNS; > 91.5 µM in the assay on SF-295 CNS; 56.8 µM in the assay with 786-0 renal; 33.8 µM in the assay with SF-539 CNS; 30.5 µM in the assay with NCI-H522 lung. In addition, in the assay with A498 renal, the TGI is > 82.9 µM.

As for `Cc1cc(S(=O)(=O)Nc2nc(N)nc(N3CCOCC3)n2)c(SCC(=O)O)cc1Cl`, the TGI in the assay with RPMI-8226 leukemia, in the assay with OVCAR-4 ovarian, in the assay with T-47D breast, in the assay with SNB-75 CNS, in the assay on SF-295 CNS and in the assay on 786-0 renal was > 10 µM in each case. Also, the TGI in the assay with SF-539 CNS, with NCI-H522 lung and in the assay on A498 renal was > 10 µM in each case.

For the molecule `NC(C(F)(F)F)(C(F)(F)F)P(=O)(c1ccccc1)c1ccccc1`, the total growth inhibition concentration (TGI) in the assay on RPMI-8226 leukemia, in the assay on OVCAR-4 ovarian, in the assay on T-47D breast, in the assay with SNB-75 CNS, in the assay on MDA-MB-435 and in the assay on SF-295 CNS was > 100 µM each time. The concentration for total growth inhibition (TGI) with 786-0 renal and in the assay with SF-539 CNS was > 100 µM in each case.

On to `COc1ccc(/C=C2\N=C(c3ccccc3)N(Nc3nnc(NN4C(=O)/C(=C/c5ccc(OC)cc5)N=C4c4ccccc4)c4ccccc34)C2=O)cc1`, for which the TGI with RPMI-8226 leukemia, in the assay on OVCAR-4 ovarian, in the assay on SNB-75 CNS, with SF-295 CNS, with 786-0 renal and in the assay with SF-539 CNS was > 100 µM each time. Moreover, the TGI in the assay with NCI-H522 lung and with A498 renal was > 100 µM each time.

For the molecule `CCOC(=O)c1nnsc1NC(=O)Nc1ccc(Cl)cc1`, the TGI is > 100 µM with RPMI-8226 leukemia; 51.2 µM in the assay with OVCAR-4 ovarian; > 100 µM in the assay on T-47D breast; 88 µM in the assay with SNB-75 CNS; > 100 µM with MDA-MB-435; 42.4 µM in the assay on 786-0 renal. The TGI in the assay with NCI-H522 lung was found to be 50.1 µM.

`Cc1cn(CC2=NCC(C)(C)CN2)c(=O)[nH]c1=O`: the TGI with T-47D breast, with SNB-75 CNS, with SF-295 CNS, in the assay with 786-0 renal, with NCI-H522 lung and with A498 renal was > 100 µM in each case.
